From patent US20130143933A1, “TARGETED CORRECTION OF A GENETIC DEFECT IN CANCER THERAPY” (TRT Pharma Inc., priority 2011, published 2013)

Tests used:
Nrf2 [1] = assay: Immunoblotting of Nrf2 protein levels in A549 cells; type: cell-based; conditions: 48 hours, NR16 at 1 and 5 μM, compared to DMSO
Description: This effect is mediated by a depletion of Nrf2, as confirmed by immunoblotting of Nrf2 protein levels in A549 cells, exposed to NR16 for 48 hours (FIG. 4).

[2] = system: A2ARE-dependent reporter activity in A549 cells; assay: ARE-dependent luciferase assay (A2ARE-luc reporter) in A549 cells; type: cell-based; conditions: NR16 at 1, 2.5 and 5 μM, NR13 at 2.5 μM, 24 hours, vs DMSO vehicle
Description: A549 cells are highly resistant to carboplatin and constitutively express high level of Nrf2 due to a mutation (G333C) in Keap1. Using ARE-dependent luciferase assays in A549 cells, which have constitutively high Nrf2 levels, the 18 compounds that are designed to target the CTD of Keap1 are tested. Included amongst these are NR16 and NR13. […] A2ARE-luc plasmid is transiently transfected into A549 cells. pRL-TK is included as internal control. Transfected cells are treated with DMSO vehicle, compound NR16 at 1, 2.5 and 5 μM as well as NR13 at 2.5 μM for 24 hours. **p<0.005, ***p<0.0005 when compared with DMSO vehicle.
A2ARE-luc and pRL-TK plasmids are transiently transfected into A549 cells. 6 hours after transfection, the transfected cells are exposed to DMSO vehicle control or compound at designated doses (5 μM) for 24 hours. ***p<0.0001 when compared with vehicle control.

A549 = assay: Sensitization to paclitaxel, AlamarBlue cell survival, A549; type: cell-based; conditions: A549, Keap1 mutation but wild type PI3K
MCF-7 cells = assay: Sensitization to paclitaxel, AlamarBlue cell survival, MCF-7; type: cell-based; conditions: MCF-7, PI3K mutation but no Keap1 mutation
H460 cells = assay: Sensitization to paclitaxel, AlamarBlue cell survival, H460; type: cell-based; conditions: PF at 10 and 50 nm, range of paclitaxel doses
Description: PF-04691502 is tested to determine is it sensitizes H460 cells to paclitaxel in vitro, using two concentrations of PF (10 and 50 nm) and a range of paclitaxel doses. Cell survival is measured using AlamarBlue and fluorescence detection for viable (metabolically active) cells with 560Exnm/590EMnm filters.

[3] = system: A549 cells (wild type PI3K); assay: phospho-GSK / Nrf2 level in A549 cells exposed to PF-04691502; type: cell-based; conditions: even at a higher dose
Description: (§1) H460 cells, which bear both mutations in PI3K (E545K) and Keap1 (D286H) are exposed the cells to the dual and potent PI3K and mTOR inhibitor PF-04691502 currently in clinical development. Within 6 hours a dramatic drop in phospho-GSK at the critical Ser9 position is detected (FIG. 6A). Within 24 hours cellular Nrf2 is reduced (FIG. 6A). This is not observed even at a higher dose in A549 cells, which have wild type PI3K (FIG. 6B).

MCF7 cells = assay: Sensitization to cisplatin or paclitaxel in Keap1-depleted (siRNA) MCF7 cells, Alamar blue; type: cell-based; conditions: MCF7 cells with Keap1 depletion (siRNA); PF-04691502 50nM for 24 h
Excerpt: To further test the specific cytotoxicity of PF-04691502, H460 cells are transfected with an siRNA specifically designed to deplete GSK-3R levels. Another siRNA that depletes Keap1 is used to test whether cells which have an activating mutation of PI3K, but WT Keap1, (e.g. MCF7), are sensitized by PF-04691502 when Keap1 is depleted. The pSuper platform (OligoEngine, Seattle, Wash.) is used to clone both siRNAs. Small inhibitory RNA sequences are designed using software available online at invitrogen.com. The siRNA, when dimerized form Bgl II and Hind III restriction sites. The oligos are cloned into the Bgl II/Hind III sites of the pSuper-puro vector.
These experiments confirm that the proposed mechanism of sensitization is GSK-dependent in Keap1 mutated or depleted (siRNA) cells. Cells are exposed to PF-04691502 50nM for 24 h, at which time media is replaced with fresh PF-04691502 and one of either cisplatin or paclitaxel is added at various doses. Cell survival is determined using Alamar blue. The shift in IC50 is determined.

pAkt (and pGSK-3β) = conditions: mouse xenograft models; oral, once daily, 10 mg/Kg; cited from earlier work
[4] = system: phospho-GSK at Ser9 position; assay: phospho-GSK (Ser9) level in H460 cells exposed to PF-04691502; type: cell-based; conditions: H460 cells (PI3K E545K, Keap1 D286H); within 6 hours
Description: as §1

Nrf2 [5] = assay: Cellular Nrf2 level in H460 cells exposed to PF-04691502; type: cell-based; conditions: within 24 hours
Description: as §1

| SMILES | Nrf2 protein level (western blot) (Nrf2 [1]) | A2ARE-dependent reporter activity [2] | sensitization to paclitaxel (cell survival) (A549) | sensitization to paclitaxel (cell survival) (MCF-7 cells) | sensitization to paclitaxel (cell survival) (H460 cells) | drop in phospho-GSK / reduction of cellular Nrf2 [3] | sensitization to cisplatin or paclitaxel (cell survival) (MCF7 cells) | depletion of phosphorylated forms of proteins in the PI3K pathway such as pAkt (and pGSK-3β) (pAkt (and pGSK-3β)) | persistence of depletion of phosphorylated PI3K pathway proteins (pAkt (and pGSK-3β)) | phospho-GSK at Ser9 position [4] | cellular Nrf2 (Nrf2 [5]) |
| --- | --- | --- | --- | --- | --- | --- | --- | --- | --- | --- | --- |
| O=C(CCCSCCCC(=O)N/N=C/c1ccccc1)N/N=C/c1ccccc1 [NR13] | inactive | inactive |  |  |  |  |  |  |  |  |  |
| O=C(CCCSCCCC(=O)N/N=C/c1ccccc1O)N/N=C/c1ccccc1O [NR16] | dose-dependent decrease | suppressed A2ARE-dependent reporter activity |  |  |  |  |  |  |  |  |  |
| COc1ccc(-c2cc3c(C)nc(N)nc3n([C@H]3CC[C@H](OCCO)CC3)c2=O)cn1 [PF-04691502] |  |  | no sensitization | no sensitization | significant sensitization | not observed | sensitizing effect | significant depletion | ≥ 8 h | dramatic drop | reduced |
